The record followed here is ChEMBL document CHEMBL3046751, “Effects of Pyridalyl on ATP Concentrations in Cultured Sf9 Cells” (J Pestic Sci, 2005).

Active and inactive are the calls of the source. The rule behind the calls is not given here.

What all share (type): functional, cell-based
Test [1] relates to Sf9. As to the kind of experiment: Reduction of ATP level in Spodoptera frugiperda (fall armyworm) Sf9 cells at 0.1 to 10 uM after 4 hr by luminescent cell viability assay.
The subject of test [2] is Sf9. As to the kind of experiment: Reduction of ATP level in Spodoptera frugiperda (fall armyworm) Sf9 cells after 20 to 24 hr by luminescent cell viability assay.
The test system of test [3] is Sf9. As to the kind of experiment: Reduction of ATP level in Spodoptera frugiperda (fall armyworm) Sf9 cells at 10 uM after 4 hr by luminescent cell viability assay.
Test [4] has as its system Sf9. Description: Reduction of ATP level in Spodoptera frugiperda (fall armyworm) Sf9 cells at 1 to 10 uM after 4 hr by luminescent cell viability assay.
In test [5] the test system is Sf9. Description: Reduction of ATP level in Spodoptera frugiperda (fall armyworm) Sf9 cells at 0.1 to 1 uM after 6 to 24 hr by luminescent cell viability assay.
Test [6] concerns Sf9. Description: Increase of ATP level in Spodoptera frugiperda (fall armyworm) Sf9 cells at 10 uM after 6 to 24 hr by luminescent cell viability assay.
Test [7] concerns Sf9. Description: Reduction of ATP level in Spodoptera frugiperda (fall armyworm) Sf9 cells at 10 uM after 6 to 24 hr by luminescent cell viability assay.
The subject of test [8] is Sf9. As to the kind of experiment: Reduction of ATP level in Spodoptera frugiperda (fall armyworm) Sf9 cells at 0.01 to 10 uM after 4 hr by luminescent cell viability assay.
Test [9] has as its system Sf9. Description: Cytotoxicity against Spodoptera frugiperda (fall armyworm) Sf9 cells at 0.01 uM.
Test [10] has as its system Sf9. Description: Reduction of ATP level in Spodoptera frugiperda (fall armyworm) Sf9 cells at 0.1 uM after 24 hr by luminescent cell viability assay.
The test system of test [11] is Sf9. As to the kind of experiment: Reduction of ATP level in Spodoptera frugiperda (fall armyworm) Sf9 cells at 0.01 uM after 24 hr by luminescent cell viability assay.
The test system of test [12] is Sf9. Description: Reduction of ATP level in Spodoptera frugiperda (fall armyworm) Sf9 cells at 10 uM after 2 hr by luminescent cell viability assay.
The subject of test [13] is Sf9. As to the kind of experiment: Reduction of ATP level in Spodoptera frugiperda (fall armyworm) Sf9 cells at 1 uM after 8 hr by luminescent cell viability assay.
Test [14] concerns Sf9. As to the kind of experiment: Reduction of ATP level in Spodoptera frugiperda (fall armyworm) Sf9 cells at 1 to 10 uM after 20 to 24 hr by luminescent cell viability assay.

Regarding `C=C(C)[C@H]1Cc2c(ccc3c2O[C@@H]2COc4cc(OC)c(OC)cc4[C@@H]2C3=O)O1`, the outcome in [1] was inactive.
Turning to `N#CC(C#N)=NNc1ccccc1Cl`, the outcome in [1] was Active. The Activity result in test [2] was “Dose-dependent effect”.
Regarding `CCCCCCCCCCCCC1=C(OC(C)=O)C(=O)c2ccccc2C1=O`, the Activity entry in test [2] is “Dose-dependent effect”. Further, in [3], the outcome was Active.
In the case of `CCOCn1c(-c2ccc(Cl)cc2)c(C#N)c(Br)c1C(F)(F)F`, in [2], the Activity result is “Dose-dependent effect”. Also, the outcome in test [4] was Active.
`COc1ccc(C[C@H]2NC[C@H](O)[C@H]2OC(C)=O)cc1`: the outcome in test [5] was inactive. In addition, the outcome in [6] was Active.
Consider `O=c1[nH]cc(F)c(=O)[nH]1`, for which the outcome in test [7] was inactive.
Turning to `Cc1nn(C)c(Oc2ccccc2)c1/C=N/OCc1ccc(C(=O)OC(C)(C)C)cc1`, the outcome in [8] was inactive.
As for `FC(F)(F)c1ccc(OCCCOc2c(Cl)cc(OCC=C(Cl)Cl)cc2Cl)nc1`, the result in test [9] and in [11] was inactive. Further, the result in test [10], in test [12], in test [13] and in test [14] was Active. Besides, the Activity result in [2] is “Dose-dependent effect”.
